{"source": "patent US20210261621A1", "about": "“Preparation of Dilipid Polymixins and Use Thereof as Antimicrobial Adjuvants” (priority 2018, published 2021)", "key": {"[1]": {"tested_on": "E. coli CANWARD-2011 97615", "format": "cell-based, Escherichia coli", "description": "Bacterial strains were either obtained from the American Type Culture Collection (ATCC), Canadian National Intensive Care Unit (CAN-ICU) surveillance study or the Canadian Ward Surveillance (CANWARD) study. Strains from both CAN-ICU and CANWARD are isolates recovered from patients diagnosed with a presumed infectious disease that were admitted in a participating medical center across Canada. Efflux-deficient strain PAO200 (lacking MexAB-OprM efflux system) and PA0750 (lacking MexAB-OprM, MexCD-OprJ, MexEF-OprN, MexJK and MexXY efflux systems, and the outer membrane protein OpmH) were kindly gifted by Dr. Ayush Kumar (University of Manitoba).\nThe in vitro antibacterial activity of the compounds studied were assessed by broth microdilution susceptibility testing following CLSI guidelines. Bacterial cultures were grown overnight prior to the assay. The overnight grown cultures were diluted in saline to 0.5 McFarland turbidity, followed by 1:50 dilution in Mueller-Hinton broth (MHB) for inoculation to a final concentration of approximately 5×10^5 colony forming units/mL. Testing was performed on 96-well plates where the tested compounds were 2-fold serially diluted in MHB and incubated with equal volumes of bacterial inoculum at 37° C. for 18 h. […] Wells containing MHB with or without bacterial cells were used as positive or negative control, respectively."}, "[2]": {"tested_on": "P. aeruginosa CANWARD-2011 96846", "format": "cell-based, Pseudomonas aeruginosa", "summary_of_the_method": "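Overnight cultures were standardized to 0.5 McFarland, diluted 1:50 into Mueller-Hinton broth for a final inoculum near 5×10^5 CFU/mL, then mixed with two-fold serially diluted compound. Plates were incubated 18 h at 37° C. following CLSI guidelines.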"}, "[3]": {"tested_on": "pig erythrocytes", "settings": "red cells of pig, 1 h, 512", "method": "The ability of the compounds to lyse eukaryotic red blood cells was measured by the amount of hemoglobin released upon incubation with pig erythrocytes, following a published protocol [30]. Briefly, fresh pig blood (generously provided by Dr. Richard Hodges, Director of Animal Care and Veterinary Services of the University of Manitoba) drawn from a pig's antecubital vein was centrifuged at 1000 g for 5 min at 4° C., washed with phosphate-buffered saline (PBS) three times, and re-suspended in the same buffer, consecutively. Compounds at study were 2-fold serially diluted in PBS on a 96-well plate and mixed with equal volumes of erythrocyte solution. Post 1 h incubation at 37° C., the intact cells were pelleted by centrifugation at 1000 g for 5 min at 4° C. Resulting supernatant was then transferred to a new 96-well plate. The hemoglobin released was then measured via an EMax Plus microplate reader (Molecular Devices, USA) at 570 nm wavelength. Erythrocytes in PBS with or without 0.1% Triton X-100 were used as positive or negative control, respectively."}, "[4]": {"tested_on": "P. aeruginosa PAO1", "design": "MICDrug / MICDrug in combo / MIC of adjuvant in combo: unit not given beside the values"}}, "note": "Several values for one entry are separate records, joined by “and”; a condition that tells them apart may be missing. Equal entries are not always repeated. Where two headings read alike, the source gives them in different places. Positions of bridges follow the written chain, without caps; N, C: chain ends. Non-standard residues stand in square brackets, D forms with d. Residues, ends and D or L forms follow the SMILES beside them. *: point of attachment. Acetyl(1-adamantyl) = O=C(CC12CC3CC(CC(C3)C1)C2)*; Dab = NCC[C@H](N)C(=O)O", "data": [{"smiles": "CC(C)C[C@@H]1NC(=O)[C@@H](Cc2ccccc2)NC(=O)[C@H](CCN)NC(=O)[C@@H](NC(=O)[C@H](CCN)NC(=O)[C@@H](NC(=O)[C@H](CCNC(=O)CC23CC4CC(CC(C4)C2)C3)NC(=O)CC23CC4CC(CC(C4)C2)C3)[C@@H](C)O)CCNC(=O)[C@H]([C@@H](C)O)NC(=O)[C@H](CCN)NC(=O)[C@H](CCN)NC1=O", "note": "[Compound 4, Diadamantane Acetic Acid (Di-Adamantyl) Polymyxin] ({Acetyl(1-adamantyl)}-[Dab](Acetyl(1-adamantyl))T[Dab][Dab][Dab][dF]L[Dab][Dab]T; lactam 4-C)", "values": [{"measurement": "MIC", "setting": "[1]", "result": 64, "unit": "µg/mL"}, {"measurement": "MIC", "setting": "[2]", "result": 32, "unit": "µg/mL"}, {"measurement": "% Hemolysis at 512 μg/mL of polymyxin", "setting": "[3]", "result": "3.2 ± 0.4", "unit": "%"}, {"measurement": "MIC of adjuvant alone (MIC1, MIC2, MIC3, MIC4, MIC5, MICPMBN)", "setting": "[4]; adjuvant alone, one value per checkerboard, in µg/mL", "result": "16 and 8"}, {"measurement": "Interpretation", "setting": "[4]; combination with Aztreonam", "result": "Additive (An FIC index of ≤0.5, 0.5<x≤4, or >4 denotes for synergistic, additive or antagonistic interaction, respectively)"}, {"measurement": "Interpretation", "setting": "[4]; combination with Ceftazidime", "result": "Additive (An FIC index of ≤0.5, 0.5<x≤4, or >4 denotes for synergistic, additive or antagonistic interaction, respectively)"}, {"measurement": "Interpretation", "setting": "[4]; combination with Chloramphenicol", "result": "Additive (An FIC index of ≤0.5, 0.5<x≤4, or >4 denotes for synergistic, additive or antagonistic interaction, respectively)"}, {"measurement": "Interpretation", "setting": "[4]; combination with Ciprofloxacin", "result": "Additive (An FIC index of ≤0.5, 0.5<x≤4, or >4 denotes for synergistic, additive or antagonistic interaction, respectively)"}, {"measurement": "Interpretation", "setting": "[4]; combination with Clindamycin", "result": "Additive (An FIC index of ≤0.5, 0.5<x≤4, or >4 denotes for synergistic, additive or antagonistic interaction, respectively)"}, {"measurement": "Interpretation", "setting": "[4]; combination with Doripenem", "result": "Additive (An FIC index of ≤0.5, 0.5<x≤4, or >4 denotes for synergistic, additive or antagonistic interaction, respectively)"}, {"measurement": "Interpretation", "setting": "[4]; combination with Doxycycline", "result": "Additive (An FIC index of ≤0.5, 0.5<x≤4, or >4 denotes for synergistic, additive or antagonistic interaction, respectively)"}, {"measurement": "Interpretation", "setting": "[4]; combination with Fosfomycin", "result": "Additive (An FIC index of ≤0.5, 0.5<x≤4, or >4 denotes for synergistic, additive or antagonistic interaction, respectively)"}, {"measurement": "Interpretation", "setting": "[4]; combination with Gentamicin", "result": "Additive (An FIC index of ≤0.5, 0.5<x≤4, or >4 denotes for synergistic, additive or antagonistic interaction, respectively)"}, {"measurement": "Interpretation", "setting": "[4]; combination with Linezolid", "result": "Additive (An FIC index of ≤0.5, 0.5<x≤4, or >4 denotes for synergistic, additive or antagonistic interaction, respectively)"}, {"measurement": "Interpretation", "setting": "[4]; combination with Meropenem", "result": "Additive (An FIC index of ≤0.5, 0.5<x≤4, or >4 denotes for synergistic, additive or antagonistic interaction, respectively)"}, {"measurement": "Interpretation", "setting": "[4]; combination with Minocycline", "result": "Additive (An FIC index of ≤0.5, 0.5<x≤4, or >4 denotes for synergistic, additive or antagonistic interaction, respectively)"}, {"measurement": "Interpretation", "setting": "[4]; combination with Moxifloxacin", "result": "Additive (An FIC index of ≤0.5, 0.5<x≤4, or >4 denotes for synergistic, additive or antagonistic interaction, respectively)"}, {"measurement": "Interpretation", "setting": "[4]; combination with Novobiocin", "result": "Additive (An FIC index of ≤0.5, 0.5<x≤4, or >4 denotes for synergistic, additive or antagonistic interaction, respectively)"}, {"measurement": "Interpretation", "setting": "[4]; combination with Piperacillin", "result": "Additive (An FIC index of ≤0.5, 0.5<x≤4, or >4 denotes for synergistic, additive or antagonistic interaction, respectively)"}, {"measurement": "Interpretation", "setting": "[4]; combination with Pleuromutilin", "result": "Additive (An FIC index of ≤0.5, 0.5<x≤4, or >4 denotes for synergistic, additive or antagonistic interaction, respectively)"}, {"measurement": "Interpretation", "setting": "[4]; combination with Rifampicin", "result": "Additive (An FIC index of ≤0.5, 0.5<x≤4, or >4 denotes for synergistic, additive or antagonistic interaction, respectively)"}, {"measurement": "Interpretation", "setting": "[4]; combination with Streptomycin", "result": "Additive (An FIC index of ≤0.5, 0.5<x≤4, or >4 denotes for synergistic, additive or antagonistic interaction, respectively)"}, {"measurement": "Interpretation", "setting": "[4]; combination with Tobramycin", "result": "Additive (An FIC index of ≤0.5, 0.5<x≤4, or >4 denotes for synergistic, additive or antagonistic interaction, respectively)"}, {"measurement": "Interpretation", "setting": "[4]; combination with Trimethoprim", "result": "Additive (An FIC index of ≤0.5, 0.5<x≤4, or >4 denotes for synergistic, additive or antagonistic interaction, respectively)"}, {"measurement": "Interpretation", "setting": "[4]; combination with Vancomycin", "result": "Additive (An FIC index of ≤0.5, 0.5<x≤4, or >4 denotes for synergistic, additive or antagonistic interaction, respectively)"}, {"measurement": "MIC of adjuvant in combo", "setting": "[4]; in combination with Aztreonam", "result": "(8)"}, {"measurement": "MIC of adjuvant in combo", "setting": "[4]; in combination with Ceftazidime", "result": "(8)"}, {"measurement": "MIC of adjuvant in combo", "setting": "[4]; in combination with Chloramphenicol", "result": "(4)"}, {"measurement": "MIC of adjuvant in combo", "setting": "[4]; in combination with Ciprofloxacin", "result": "(0.25)"}, {"measurement": "MIC of adjuvant in combo", "setting": "[4]; in combination with Clindamycin", "result": "(4)"}, {"measurement": "MIC of adjuvant in combo", "setting": "[4]; in combination with Doripenem", "result": "(8)"}, {"measurement": "MIC of adjuvant in combo", "setting": "[4]; in combination with Doxycycline", "result": "(4)"}, {"measurement": "MIC of adjuvant in combo", "setting": "[4]; in combination with Fosfomycin", "result": "(4)"}, {"measurement": "MIC of adjuvant in combo", "setting": "[4]; in combination with Gentamicin", "result": "(0.25)"}, {"measurement": "MIC of adjuvant in combo", "setting": "[4]; in combination with Linezolid", "result": "(8)"}, {"measurement": "MIC of adjuvant in combo", "setting": "[4]; in combination with Meropenem", "result": "(4)"}, {"measurement": "MIC of adjuvant in combo", "setting": "[4]; in combination with Minocycline", "result": "(4)"}, {"measurement": "MIC of adjuvant in combo", "setting": "[4]; in combination with Moxifloxacin", "result": "(4)"}, {"measurement": "MIC of adjuvant in combo", "setting": "[4]; in combination with Novobiocin", "result": "(4)"}, {"measurement": "MIC of adjuvant in combo", "setting": "[4]; in combination with Piperacillin", "result": "(0.25)"}, {"measurement": "MIC of adjuvant in combo", "setting": "[4]; in combination with Pleuromutilin", "result": "(4)"}, {"measurement": "MIC of adjuvant in combo", "setting": "[4]; in combination with Rifampicin", "result": "(4)"}, {"measurement": "MIC of adjuvant in combo", "setting": "[4]; in combination with Streptomycin", "result": "(0.25)"}, {"measurement": "MIC of adjuvant in combo", "setting": "[4]; in combination with Tobramycin", "result": "(0.25)"}, {"measurement": "MIC of adjuvant in combo", "setting": "[4]; in combination with Trimethoprim", "result": "(8)"}, {"measurement": "MIC of adjuvant in combo", "setting": "[4]; in combination with Vancomycin", "result": "(4)"}, {"measurement": "adjuvant activity (potentiation of the panel of 21 antibiotics)", "setting": "[4]; result in words", "result": "did not enhance the activity of any antibiotics"}]}]}
